Reference: US11458135B2, “Combination of pure 5-HT6 receptor antagonists with acetylcholinesterase inhibitors” (priority 2016, dated 2022)
Counter-ions that a name gives are not always drawn.

Tests used:
[1] = system: acetylcholine levels in ventral hippocampus of male Wistar rats; test: Acetylcholine modulation in ventral hippocampus (microdialysis), combination treatment; assay type: in vivo, rat; conditions: s.c. alone
Excerpt: However, there were minor modifications in the microdialysis experiment.
After surgical recovery of 4-5 days, male Wistar rats were connected to dual quartz lined two-channel liquid swivel (Instech, UK) on a counter balance lever arm, which allowed unrestricted movements of the animal. Sixteen hours before start of study, a pre-equilibrated microdialysis probe (4 mm dialysis membrane) was inserted into the ventral hippocampus through the guide cannula. On the day of study, the probe was perfused with aCSF at a flow rate of 1.5 μL/min and a stabilization period of 2 h was maintained. […] Dialysates were stored below −50° C. prior to analysis.
All microdialysis data for acetylcholine was plotted as percent change from mean dialysate basal concentrations with 100% defined as the average of five pre-dose values. […] Statistical significance was considered at a p value less than 0.05. Incorrect probe placement was considered as criteria to reject the data from animal.

[2] = system: theta power in dorsal hippocampus of anesthetized male Wistar rats; test: Evoked theta modulation in dorsal hippocampus of anesthetized male Wistar rats; assay type: in vivo, rat; conditions: donepezil 0.3 mg/kg, i.v. alone
Method: Additionally one electrode was implanted into the cerebellum which served as a reference. Hippocampal θ rhythm was evoked via a 6-s electrical stimulation train (20-160 μA, 0.3-ms pulse duration, 250 Hz) delivered to the NPO at a rate of 0.01 trains/s with a Grass S88 stimulator and PSIU6 stimulus isolation unit (Grass Medical Instruments, Quincy, Mass.). EEG was recorded at a rate of 1000 Hz using Ponemah (Version 5.2) software and stored for off-line analysis using NeuroScore™ (Version 3.0). Baseline amplitude level was achieved by using the current required to elicit θ rhythm to 50% of the maximal amplitude under control conditions.
Power in the θ rhythm frequency in the stimulation period during the 30 min baseline period was calculated and the percent changes in these measures post treatment were calculated. […] Statistical significance was considered at a p value less than 0.05.

[3] = target: human recombinant 5-HT2A receptor (Homo sapiens (Human), UniProt P28223); test: Determination of Ki value at 5-HT2A receptor (radioligand binding, [3H]-Ketanserine); conditions: [3H]-Ketanserine 1.75 nM, average of three independent experiments
Excerpt: The reaction was terminated by rapid vacuum filtration onto the glass fiber filters.

[4] = system: acetylcholine levels in ventral hippocampus of male Wistar rats; test: Acetylcholine modulation in ventral hippocampus (microdialysis), test compound alone; assay type: in vivo, rat
Excerpt: Male Wistar rats (240-300 g body weight) were stereotaxically implanted with a microdialysis guide cannula in ventral hippocampus (AP: −5.2 mm, ML: +5.0 mm, DV: −3.8 mm) under isoflurane anesthesia. […] The rats were allowed to recover individually for four-five days in a round bottom Plexiglas bowl with free access to feed and water.
One day prior to the microdialysis experiment, rats were connected to a dual quartz lined two-channel liquid swivel (Instech, UK) on a counter balance lever arm, which allowed unrestricted movements of the animal. […] On the day of experiment, perfusion rate was changed to 1.2 μL/min and stabilization period of atleast 2 hours was maintained. […] Dialysate samples were collected for additional period of 6 h using CMA/170 refrigerated fraction collector.
All microdialysis data were plotted as percent change from mean dialysate basal concentrations with 100% defined as the average of five predose values. The AUC was calculated by trapezoidal rule using WinNonlin® (5.0.1 version, Pharsight Corp. CA). The statistical significance between the mean AUC values of treatment group with vehicle was calculated using Dunnett's multiple comparison test. For each treatment group, the percent increase in acetylcholine levels was compared to the vehicle group using two-way analysis of variance (time and treatment), followed by Bonferroni post test. […]

[5] = Rodent pharmacokinetic study for assessment of drug interaction; conditions: compound 1 3 mg/kg, p.o., donepezil 1 mg/kg, s.c.; male Wistar rats
Method: Male Wistar rats (260±50 grams) were used as experimental animals. Animals were housed individually in polypropylene cages and acclimatized for three days prior to study.
Blood was collected through retro orbital plexus under isoflurane anesthesia. Collected blood was transferred into a pre-labeled eppendorf tube containing 10 μL of sodium heparin as an anticoagulant. Blood samples were collected at following time points: 0.33, 0.66, 1, 1.5, 2, 4, 6, 8 and 24 hours post dose. Blood was centrifuged at 4000 rpm for 10 minutes. Plasma was separated and stored frozen at −80 ° C. until analysis. […] The test compounds were quantified in the calibration range around 0.05-100 ng/mL in plasma. Study samples were analyzed using calibration samples in the batch and quality control samples spread across the batch.
Pharmacokinetic parameters Cmax, Tmax and AUClast were calculated by non-compartmental model using Phoenix WinNonlin 6.4.0 version Software package.

SMILES: COc1cc2c(cc1OC)C(=O)C(CC1CCN(Cc3ccccc3)CC1)C2 (stereo not shown) [Donepezil]
- maximum hippocampal acetylcholine levels ([1]; donepezil 1 mg/kg): 703±134 % of basal levels
- hippocampal theta power [2]: moderate increase

SMILES: COc1ccc2c(c1)c(CN1CCN(C)CC1)cn2S(=O)(=O)c1ccc(F)cc1 [Compound 2, 1-[(4-Fluorophenyl)sulfonyl]-5-methoxy-3-[(4-methyl-1-piperazinyl)methyl]-1H-indole dihydrochloride]
- Ki [3]: > 10 µM

SMILES: CCN(C)C(=O)Oc1cccc([C@H](C)N(C)C)c1 [rivastigmine, Rivastigmine]
- increase in hippocampal acetylcholine level ([1]; rivastigmine 0.5 mg/kg): about 3 fold

SMILES: COc1ccc2c(c1)c(CN1CCN(C)CC1)cn2S(=O)(=O)c1ccccc1Br [Compound 1, 1-[(2-Bromophenyl)sulfonyl]-5-methoxy-3-[(4-methyl-1-piperazinyl)methyl]-1H-indole dimesylate monohydrate]
- increase in hippocampal acetylcholine levels ([4]; 3 mg/kg, p.o., ventral hippocampus, male Wistar rats): about 172%
- Area under the curve value of acetylcholine change vs vehicle treatment ([4]; compound 1 p.o., FIG. 2): significantly higher
- difference in plasma exposures administered alone or in combination [5]: No significant difference
